Legend:
Format in all cases: in vivo
[1] = test system: giant foxtail (Setaria faberii); assay: Test A preemergence; details: for Plant response rating, Foxtail, Giant: preemergence; for Foxtail, Giant plant response rating (0 to 100 scale): Preemergence, 0 is no effect, 100 is complete control
Procedure, shortened: (§1)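 Preemergence directed soil spray on seeded pots, or postemergence application to plants 2–10 cm, one- to two-leaf. Solvent mixture non-phytotoxic, with surfactant. Scored ~10 d later, visually, 0–100 vs untreated.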

[2] = test system: pigweed (Amaranthus retroflexus); assay: Test A preemergence; details: for Plant response rating, Pigweed: preemergence; for Pigweed plant response rating (0 to 100 scale): Preemergence, 0 is no effect, 100 is complete control
[3] = test system: crabgrass, large (Digitaria sanguinalis); assay: Test A preemergence; details: for Plant response rating, Crabgrass, Large: preemergence; for Crabgrass, Large plant response rating (0 to 100 scale): Preemergence, 0 is no effect, 100 is complete control
Procedure, shortened: as §1

[4] = test system: morningglory (Ipomoea spp.); assay: Test A preemergence; details: for Plant response rating, Morningglory: preemergence; for Morningglory plant response rating (0 to 100 scale): Preemergence, 0 is no effect, 100 is complete control
Procedure, shortened: as §1

[5] = test system: velvetleaf (Abutilon theophrasti); assay: Test A preemergence; details: for Plant response rating, Velvetleaf: preemergence; for Velvetleaf plant response rating (0 to 100 scale): Preemergence, 0 is no effect, 100 is complete control
Procedure, shortened: as §1

[6] = test system: wheat (Triticum aestivum); assay: Test A preemergence; details: for Plant response rating, Wheat: preemergence; for Wheat plant response rating (0 to 100 scale): Preemergence, 0 is no effect, 100 is complete control
Procedure, shortened: as §1

[7] = test system: corn (Zea mays); assay: Test A preemergence; details: for Plant response rating, Corn: preemergence; for Corn plant response rating (0 to 100 scale): Preemergence, 0 is no effect, 100 is complete control
Procedure, shortened: as §1

[8] = test system: barnyardgrass (Echinochloa crus-galli); assay: Test A preemergence; details: for Plant response rating, Barnyardgrass: preemergence; for Barnyardgrass plant response rating (0 to 100 scale): Preemergence, 0 is no effect, 100 is complete control
Procedure, shortened: as §1

[9] = test system: rice (Oryra sativa); assay: Test B flooded paddy test; details: Flood, 0 to 100 scale where 0 is no effect and 100 is complete control, 13 to 15 d
Procedure, shortened: (§2)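 2-leaf plants; pots flooded 3 cm over soil; cpd added to paddy water; depth held; greenhouse 13–15 d; visual rating vs controls, 0 = no effect, 100 = complete control.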

[10] = test system: sedge, umbrella (small-flower umbrella sedge, Cyperus difformis); assay: Test B flooded paddy test; details: Flood; for Plant response rating, Sedge, Umbrella: 0 to 100 scale where 0 is no effect and 100 is complete control, 13 to 15 d
Procedure, shortened: as §2

[11] = test system: ducksalad (Heteranthera limosa); assay: Test B flooded paddy test; details: Flood, 0 to 100 scale where 0 is no effect and 100 is complete control, 13 to 15 d
Procedure, shortened: as §2

[12] = test system: barnyardgrass (Echinochloa crus-galli); assay: Test B flooded paddy test; details: Flood, 0 to 100 scale where 0 is no effect and 100 is complete control, 13 to 15 d
Procedure, shortened: as §2

[13] = test system: giant foxtail (Setaria faberii); assay: Test A postemergence
Procedure, shortened: as §1

[14] = test system: pigweed (Amaranthus retroflexus); assay: Test A postemergence
Procedure, shortened: as §1

[15] = test system: crabgrass, large (Digitaria sanguinalis); assay: Test A postemergence
Procedure, shortened: as §1

[16] = test system: morningglory (Ipomoea spp.); assay: Test A postemergence
Procedure, shortened: as §1

[17] = test system: velvetleaf (Abutilon theophrasti); assay: Test A postemergence
Procedure, shortened: as §1

[18] = test system: wheat (Triticum aestivum); assay: Test A postemergence
Procedure, shortened: as §1

[19] = test system: corn (Zea mays); assay: Test A postemergence
Procedure, shortened: as §1

[20] = test system: barnyardgrass (Echinochloa crus-galli); assay: Test A postemergence
Procedure, shortened: as §1

[21] = 125 g ai/ha, 0 to 100 scale (0 no effect, 100 complete control)
[22] = 500 g ai/ha, postemergence, 0 to 100 scale, 0 no effect, 100 complete control
[23] = Postemergence, 125 g ai/ha, visual injury, 0 to 100 scale (0 no effect, 100 complete control), approx. 10 d
[24] = 125 g ai/ha, visual rating after approx. 10 d, 0 to 100 scale where 0 is no effect and 100 is complete control
[25] = 500 g ai/ha, 0 to 100 scale, 0 = no effect, 100 = complete control
[26] = 125 g ai/ha, postemergence, visual injury after approximately 10 d, 0 to 100 scale (0 no effect, 100 complete control)
[27] = 500 g ai/ha, postemergence, visual injury, 0 to 100 scale (0 no effect, 100 complete control), approx. 10 d

O=C1NCC(c2ccc(F)c(F)c2)C1C(=O)Nc1n[nH]cc1Br (racemic) [Compound 361]
0: Plant response rating, Foxtail, Giant [1, 21] | Foxtail, Giant plant response rating (0 to 100 scale) ([1]; 500 g ai/ha) | Plant response rating, Pigweed [2, 21] | Pigweed plant response rating (0 to 100 scale) ([2]; 500 g ai/ha) | Plant response rating, Crabgrass, Large [3, 21] | Crabgrass, Large plant response rating (0 to 100 scale) ([3]; 500 g ai/ha) | Plant response rating, Morningglory [4, 21] | Morningglory plant response rating (0 to 100 scale) ([4]; 500 g ai/ha) | Plant response rating, Velvetleaf [5, 21] | Velvetleaf plant response rating (0 to 100 scale) ([5]; 500 g ai/ha) | Plant response rating, Wheat [6, 21] | Wheat plant response rating (0 to 100 scale) ([6]; 500 g ai/ha) | Plant response rating, Corn [7, 21] | Corn plant response rating (0 to 100 scale) ([7]; 500 g ai/ha) | Plant response rating, Barnyardgrass [8, 21] | Barnyardgrass plant response rating (0 to 100 scale) ([8]; 500 g ai/ha) | Plant response rating, Rice ([9]; 250 g ai/ha) | Plant response rating, Sedge, Umbrella ([10]; 250 g ai/ha) | Plant response rating, Ducksalad ([11]; 250 g ai/ha) | Plant response rating, Barnyardgrass ([12]; 250 g ai/ha) | Plant response rating, Foxtail, Giant [13, 22] | Plant response rating, Foxtail, Giant [13, 23] | Plant response rating, Pigweed [14, 22] | Plant response rating, Pigweed [14, 23] | Plant response rating, Crabgrass, Large [15, 22] | Plant response rating, Crabgrass, Large [15, 23] | Plant response rating, Morningglory [16, 22] | Plant response rating, Morningglory [16, 23] | Plant response rating, Velvetleaf [17, 22] | Plant response rating, Velvetleaf [17, 23] | Plant response rating, Wheat [18, 22] | Plant response rating, Wheat [18, 23] | Plant response rating, Corn [19, 22] | Plant response rating, Corn [19, 23] | Plant response rating, Barnyardgrass [20, 22] | Plant response rating, Barnyardgrass [20, 23]

O=C1NCC(c2ccc(-c3ccccc3)cc2)C1C(=O)Nc1ccccc1C(F)(F)F (racemic) [Compound 367]
0: Plant response rating, Foxtail, Giant [1, 21] | Foxtail, Giant plant response rating (0 to 100 scale) ([1]; 500 g ai/ha) | Plant response rating, Pigweed [2, 21] | Pigweed plant response rating (0 to 100 scale) ([2]; 500 g ai/ha) | Plant response rating, Crabgrass, Large [3, 21] | Crabgrass, Large plant response rating (0 to 100 scale) ([3]; 500 g ai/ha) | Plant response rating, Morningglory [4, 21] | Morningglory plant response rating (0 to 100 scale) ([4]; 500 g ai/ha) | Plant response rating, Velvetleaf [5, 21] | Velvetleaf plant response rating (0 to 100 scale) ([5]; 500 g ai/ha) | Plant response rating, Wheat [6, 21] | Wheat plant response rating (0 to 100 scale) ([6]; 500 g ai/ha) | Plant response rating, Corn [7, 21] | Corn plant response rating (0 to 100 scale) ([7]; 500 g ai/ha) | Plant response rating, Barnyardgrass [8, 21] | Barnyardgrass plant response rating (0 to 100 scale) ([8]; 500 g ai/ha) | Plant response rating, Rice ([9]; 1000 g ai/ha) | Plant response rating, Sedge, Umbrella ([10]; 1000 g ai/ha) | Plant response rating, Ducksalad ([11]; 1000 g ai/ha) | Plant response rating, Barnyardgrass ([12]; 1000 g ai/ha) | Plant response rating, Foxtail, Giant [13, 22] | Plant response rating, Foxtail, Giant [13, 23] | Plant response rating, Pigweed [14, 22] | Plant response rating, Pigweed [14, 23] | Plant response rating, Crabgrass, Large [15, 22] | Plant response rating, Crabgrass, Large [15, 23] | Plant response rating, Morningglory [16, 22] | Plant response rating, Morningglory [16, 23] | Plant response rating, Velvetleaf [17, 22] | Plant response rating, Velvetleaf [17, 23] | Plant response rating, Wheat [18, 22] | Plant response rating, Wheat [18, 23] | Plant response rating, Corn [19, 22] | Plant response rating, Corn [19, 23] | Plant response rating, Barnyardgrass [20, 22] | Plant response rating, Barnyardgrass [20, 23]

O=C1NCC(c2cccc(O)c2)C1C(=O)Nc1ccccc1C(F)(F)F (racemic) [Compound 716]
0: Plant response rating, Foxtail, Giant [1, 24] | Plant response rating, Foxtail, Giant [1, 25] | Plant response rating, Pigweed [2, 24] | Plant response rating, Pigweed [2, 25] | Plant response rating, Crabgrass, Large [3, 24] | Plant response rating, Crabgrass, Large [3, 25] | Plant response rating, Morningglory [4, 24] | Plant response rating, Morningglory [4, 25] | Plant response rating, Velvetleaf [5, 24] | Plant response rating, Velvetleaf [5, 25] | Plant response rating, Wheat [6, 24] | Plant response rating, Wheat [6, 25] | Plant response rating, Corn [7, 24] | Plant response rating, Corn [7, 25] | Plant response rating, Barnyardgrass [8, 24] | Plant response rating, Barnyardgrass [8, 25] | Plant response rating, Rice ([9]; 250 g ai/ha) | Sedge, Umbrella plant response rating ([10]; 250 g ai/ha, scale of 0 to 100 where 0 is no effect and 100 is complete control) | Plant response rating, Ducksalad ([11]; 250 g ai/ha) | Plant response rating, Barnyardgrass ([12]; 250 g ai/ha) | Plant response rating, Foxtail, Giant [13, 26] | Plant response rating, Foxtail, Giant [13, 27] | Plant response rating, Pigweed [14, 26] | Plant response rating, Pigweed [14, 27] | Plant response rating, Crabgrass, Large [15, 26] | Plant response rating, Crabgrass, Large [15, 27] | Plant response rating, Morningglory [16, 26] | Plant response rating, Morningglory [16, 27] | Plant response rating, Velvetleaf [17, 26] | Plant response rating, Velvetleaf [17, 27] | Plant response rating, Wheat [18, 26] | Plant response rating, Wheat [18, 27] | Plant response rating, Corn [19, 26] | Plant response rating, Corn [19, 27] | Plant response rating, Barnyardgrass [20, 26] | Plant response rating, Barnyardgrass [20, 27]

Nc1cccc(C2CNC(=O)C2C(=O)Nc2cccc(F)c2F)c1 (stereo not drawn) [Compound 353]
0: Plant response rating, Foxtail, Giant [1, 21] | Foxtail, Giant plant response rating (0 to 100 scale) ([1]; 500 g ai/ha) | Plant response rating, Pigweed [2, 21] | Pigweed plant response rating (0 to 100 scale) ([2]; 500 g ai/ha) | Plant response rating, Crabgrass, Large [3, 21] | Crabgrass, Large plant response rating (0 to 100 scale) ([3]; 500 g ai/ha) | Plant response rating, Morningglory [4, 21] | Morningglory plant response rating (0 to 100 scale) ([4]; 500 g ai/ha) | Plant response rating, Velvetleaf [5, 21] | Velvetleaf plant response rating (0 to 100 scale) ([5]; 500 g ai/ha) | Plant response rating, Wheat [6, 21] | Wheat plant response rating (0 to 100 scale) ([6]; 500 g ai/ha) | Plant response rating, Corn [7, 21] | Corn plant response rating (0 to 100 scale) ([7]; 500 g ai/ha) | Plant response rating, Barnyardgrass [8, 21] | Barnyardgrass plant response rating (0 to 100 scale) ([8]; 500 g ai/ha) | Plant response rating, Rice ([9]; 250 g ai/ha) | Plant response rating, Sedge, Umbrella ([10]; 250 g ai/ha) | Plant response rating, Ducksalad ([11]; 250 g ai/ha) | Plant response rating, Barnyardgrass ([12]; 250 g ai/ha) | Plant response rating, Foxtail, Giant [13, 22] | Plant response rating, Foxtail, Giant [13, 23] | Plant response rating, Pigweed [14, 22] | Plant response rating, Pigweed [14, 23] | Plant response rating, Crabgrass, Large [15, 22] | Plant response rating, Crabgrass, Large [15, 23] | Plant response rating, Morningglory [16, 22] | Plant response rating, Morningglory [16, 23] | Plant response rating, Velvetleaf [17, 22] | Plant response rating, Velvetleaf [17, 23] | Plant response rating, Wheat [18, 22] | Plant response rating, Wheat [18, 23] | Plant response rating, Corn [19, 22] | Plant response rating, Corn [19, 23] | Plant response rating, Barnyardgrass [20, 22] | Plant response rating, Barnyardgrass [20, 23]
